Experimental findings from patent US20210219550A1, “PEST CONTROL COMPOSITIONS AND USES THEREOF” (Flagship Pioneering Innovations VI, LLC, priority 2018, published 2021) are described below.

In one data set the test system is E. coli. Description: Treatment of bacteria and yeast with DOX-loaded grapefruit PMPs (kinetic OD600, relative OD). Conditions: effective DOX 5-100 μM. Here is the method:
(§1) Bacteria and yeast strains were maintained as indicated by the supplier: E. coli(ATCC, #25922) was grown on Trypticase Soy Agar/broth at 37° C., Pseudomonas aeruginosa (ATCC) was grown on Tryptic soy Agar/broth with […] rifampicin at 37° C., Pseudomonas syringae pv. tomato str. DC3000 bacteria (ATCC, #BAA-871) was grown on King's Medium B agar with […] rifampicin at 30° C., and Saccharomyces cerevisiae (ATCC, #9763) was grown on yeast extract peptone dextrose broth (YPD) and maintained at 30° C. Prior to treatment, fresh one day cultures were grown overnight, the OD (600 nm) was adjusted to 0.1 OD with medium prior to use, and bacteria/yeast were transferred to a 96 well plate for treatment (duplicate samples, 100 μl/well). […] Plates were covered with aluminum foil, and incubated at 37° C. (E. coli, P. aeruginosa), or 30° C. (S. cerevisiae, P. syringae) and agitated at 220 rpm.
(§2) A kinetic Absorbance measurement at 600 nm was performed on a SpectraMax® spectrophotometer to monitor the OD of the cultures at t=0 h, t=1 h, t=2 h, t=3 h, t=4.5 h, t=16 h (E. coli, P. aeruginosa) or t=0.5 h, t=1.5 h, t=2.5 h, t=3.5 h, t=4 h, t=16 h (P. syringae, S. cerevisiae).
(§3) To compare the cytotoxic effect of PMP-DOX treatment on different bacterial and yeast strains, within each treatment group the relative OD was determined as compared to the untreated control (set to 100%).

A further data set relates to Pseudomonas aeruginosa. The data set is described as above. Particulars: P. aeruginosa, effective DOX 5-100 μM. Here is the method: as §1, §2, §3
Data set [1] concerns Pseudomonas syringae pv. tomato str. DC3000. The data set is described as above. Particulars: P. syringae, effective DOX 5-100 μM. Here is the method:
as §1, §2, §3

Another data set has as its system Saccharomyces cerevisiae. The description is as above. Conditions: S. cerevisiae, effective DOX 5-100 μM. Here is the method: as §1, §2, §3
Data set [2] has as its system Arabidopsis thaliana seedlings. Description: Treatment of Arabidopsis thaliana seedlings with doxorubicin-loaded PMPs (cytotoxicity: leaf vigor, leaf color, root length). Conditions: 7-day old seedlings, 24 hours treatment, 3 further days; doses tested 25, 50, 100 μM. The format is in vivo.
Experimental: Wild type Arabidopsis thaliana Col-0 seeds were obtained from the ABRC, surface sterilized with 50% bleach, stratified for 1-3 d at 4° C., and germinated on half-strength (0.5×) Murashige and Skoog (MS) medium supplemented with 0.5% sucrose, 2.5 mM MES, pH 5.6, containing 0.8% agar, with a photoperiod of 16 h light 23° C./8 h dark 21° C.
To test whether PMPs can deliver a small molecule cargo in planta, 7-day old Arabidopsis thaliana seedlings were transferred to 0.5× liquid MS medium in a 24 well plate (1 seedling per well), and treated with free DOX or DOX-loaded PMPs with an encapsulated DOX dose of 0 (negative control), 25 μM, 50 μM and 100 μM. The plate was covered with aluminum foil and incubated for 24 hours. DOX-containing medium was removed, the seedlings were washed two times with ½X MS medium, and fresh medium was added. Seedlings were incubated for an additional 3 days under a normal photoperiod (16 h light 23° C./8 h dark 21° C.). Next, seedlings were removed from the plate and towel-dried for imaging and cytotoxicity was assessed by analyzing leaf vigor, leaf color and root length. Cytotoxicity is defined by shortening of the roots, loss of leaf vigor, and leaf discoloration (yellow instead of green) when compared to an untreated seedling control.

Regarding `COc1cccc2c1C(=O)c1c(O)c3c(c(O)c1C2=O)C[C@@](O)(C(=O)CO)C[C@@H]3O[C@H]1C[C@H](N)[C@H](O)[C@H](C)O1` [free doxorubicin, doxorubicin], the “cytotoxic effect (relative OD vs untreated control), in words” value (in the data set on E. coli; with Pseudomonas aeruginosa; in data set [1]; in the data set on Saccharomyces cerevisiae) was “cytotoxicity is induced earlier than with PMP-DOX delivery” in each case. For the same molecule, the “DOX dose at which cytotoxicity was shown” value in data set [2] is 100 µM.
